The target of data set [1] is T1, Albumin (Bos taurus, UniProt P02769). The data set is described as follows: Binding affinity to bovine serum albumin assessed as increase in fluorescence intensity at 10 uM measured after 4 hrs by TAMRA-N3 based In-gel fluorescence scanning analysis. The conditions noted are these: cattle.
Data set [2] is described as follows: Binding affinity to glutamic acid in aqueous solution measured within 3 hrs by HPLC analysis.
Data set [3] has as its target Delta(3,5)-Delta(2,4)-dienoyl-CoA isomerase, mitochondrial (Homo sapiens) (UniProt Q13011). The data set is described as follows: Binding affinity to ECH1 in human HepG2 cells at 100 uM incubated for 8 hrs by pull-down/Western blot analysis. In kind it is cell-based.
For data set [4], the species on record is Homo sapiens. In words: Binding affinity to beta-amylase (unknown origin) measured after 30 mins by TAMRA-N3 based In-gel fluorescence scanning analysis. The following applies: dose 5-50 µM.
Data set [5] concerns the target T1, Albumin. The data set is described as follows: Binding affinity to bovine serum albumin assessed as increase in fluorescence intensity at 5 uM measured after 30 mins by TAMRA-N3 based In-gel fluorescence scanning analysis. The conditions noted are these: cattle, 0.5 h.
Data set [6] addresses T1, Albumin. In words: Binding affinity to bovine serum albumin assessed as increase in fluorescence intensity at 10 uM measured after 4 hrs in presence of N,4-Dimethyl-N-(phenylethynyl)benzenesulfonamide by TAMRA-N3 based In-gel fluorescence scanning analysis. The following applies: cattle.
Data set [7] in a line: Stability of the compound in DMSO/H2O solution measured after 7 days by 1H-NMR analysis. In kind it is physicochemical. The following applies: 168 h; time 7 day.
For data set [8], the target named is Aldehyde dehydrogenase 1A1 (Homo sapiens) (UniProt P00352). The data set is described as follows: Binding affinity to ALDH1 in human HepG2 cells at 100 uM incubated for 8 hrs by pull-down/Western blot analysis. In kind it is cell-based.
Data set [9] has as its system HepG2. In words: Inhibition of ERK phosphorylation in human HepG2 cells at 5 to 40 uM by Western blot analysis. The data set is classed as cell-based. The following applies: dose 5-40 µM.
For data set [10], the target named is Dual specificity mitogen-activated protein kinase kinase 2 (Homo sapiens) (UniProt P36507). In words: Binding affinity to MEK2 in human HepG2 cells at 100 uM incubated for 8 hrs by pull-down/Western blot analysis. The data set is classed as cell-based.
In data set [11] the target is Catalase (Homo sapiens) (UniProt P04040). The data set is described as follows: Binding affinity to catalase (unknown origin) measured after 30 mins by TAMRA-N3 based In-gel fluorescence scanning analysis. The following applies: dose 5-50 µM.
Data set [12] addresses Aldehyde dehydrogenase, mitochondrial (Homo sapiens) (UniProt P05091). In words: Binding affinity to ALDH2 in human HepG2 cells at 100 uM incubated for 8 hrs by pull-down/Western blot analysis. In kind it is cell-based.
Data set [13] relates to HepG2. The data set is described as follows: Binding affinity to G3P in human HepG2 cells at 100 uM incubated for 8 hrs by pull-down/Western blot analysis. In kind it is cell-based.
Data set [14] concerns the target Dual specificity mitogen-activated protein kinase kinase 2 (Homo sapiens) (UniProt P36507). In words: Stabilization of MEK2 in human HepG2 cells assessed as increase in thermal stability at 50 uM incubated for 3 hrs by cellular thermal shift assay. The data set is classed as cell-based.
Data set [15] has as its system GTPase KRas (Homo sapiens), P01116 [G12D]. In words: Binding affinity to KRAS G12D mutant (unknown origin) measured after 30 mins by TAMRA-N3 based In-gel fluorescence scanning analysis. The conditions noted are these: dose 5-50 µM.
The subject of data set [16] is A549. The data set is described as follows: cells. The data set is classed as functional, cell-based. The conditions noted are these: Homo sapiens, A549, 72 h.
Description: Growth inhibition of human A549 cells expressing EGFR incubated for 72 hrs by CCK8 assay
In data set [17] the test system is NCI-H3255. In words: cells. In kind it is functional, cell-based. The following applies: Homo sapiens, NCI-H3255, 72 h.
Description: Growth inhibition of human NCI-H3255 cells harbouring EGFR L858R mutant incubated for 72 hrs by CCK8 assay
The target of data set [18] is Leucine-rich PPR motif-containing protein, mitochondrial (Homo sapiens) (UniProt P42704). The data set is described as follows: Binding affinity to LPPRC in human HepG2 cells at 10 uM incubated for 8 hrs by pull-down/LC-MS/MS analysis. The data set is classed as cell-based.
The subject of data set [19] is Epidermal growth factor receptor (Homo sapiens), P00533 [L858R]. The data set is described as follows: Binding affinity to EGFR L858R mutant in human NCI-H3255 cells at 10 uM incubated for 8 hrs by pull-down/Western blot analysis. In kind it is cell-based.
In data set [20] the target is Epidermal growth factor receptor (Homo sapiens, UniProt P00533, L858R). The data set is described as follows: Inhibition of EGFR L858R mutant (unknown origin) using peptide substrate by FRET assay.
Data set [21] concerns BaF3. In words: Growth inhibition of mouse BaF3 cells harbouring EGFR L858R mutant incubated for 72 hrs by CCK8 assay. The following applies: BaF3, 72 h. The data set is classed as functional, cell-based.
Data set [22] in a line: Growth inhibition of mouse Ba/F3 EGFR cells incubated for 72 hrs by CCK8 assay. The data set is classed as functional, cell-based.
The target of data set [23] is Epidermal growth factor receptor (Homo sapiens) (UniProt P00533). The data set is described as follows: Inhibition of EGFR in human NCI-H3255 cells assessed as decrease in ERK phosphorylation level at 0.22 to 20 uM. In kind it is cell-based. The following applies: dose 0.22-20 µM.
Data set [24] deals with Epidermal growth factor receptor (Homo sapiens), P00533 [L858R]. In words: Binding affinity to EGFR L858R mutant in human NCI-H3255 cells assessed as increase in thermal stability at 0.5 uM incubated for 3 hrs by cellular thermal shift assay. In kind it is cell-based.
Data set [25] relates to Epidermal growth factor receptor (Homo sapiens), P04626+P00533+Q15303+P21860 [L858R]. The data set is described as follows: Binding affinity to EGFR L858R mutant in mouse BaF3 cells at 10 uM incubated for 8 hrs by pull-down/Western blot analysis. The data set is classed as cell-based.
In data set [26] the target is Epidermal growth factor receptor (Homo sapiens) (UniProt P00533). The data set is described as follows: Inhibition of EGFR phosphorylation in human NCI-H3255 cells at 0.22 to 20 uM. In kind it is cell-based. The conditions noted are these: dose 0.22-20 µM.
The test system of data set [27] is NCI-H3255. The data set is described as follows: Inhibition of colony formation in human NCI-H3255 cells at 10 uM by Giemsa staining based assay. In kind it is functional.
Data set [28] deals with ATP-dependent translocase ABCB1 (Homo sapiens, UniProt P08183). In words: Binding affinity to MDR1 in human HepG2 cells at 10 uM incubated for 8 hrs by pull-down/LC-MS/MS analysis. The data set is classed as cell-based. The conditions noted are these: hepg2, 8 h.
The target of data set [29] is Epidermal growth factor receptor (Homo sapiens) (UniProt P00533). The data set is described as follows: Inhibition of EGFR in human NCI-H3255 cells assessed as decrease in AKT phosphorylation level at 0.22 to 20 uM. The following applies: dose 0.22-20 µM. In kind it is cell-based.
Data set [30] addresses Ubiquitin-like modifier-activating enzyme 1 (Homo sapiens) (UniProt P22314). The data set is described as follows: Binding affinity to UBA1 in human HepG2 cells at 10 uM incubated for 8 hrs by pull-down/LC-MS/MS analysis. The data set is classed as cell-based.
The target of data set [31] is Glutathione S-transferase 3, mitochondrial (Homo sapiens) (UniProt O14880). In words: Binding affinity to MGST3 in human HepG2 cells at 10 uM incubated for 8 hrs by pull-down/LC-MS/MS analysis. The data set is classed as cell-based.
Data set [32] has as its system NCI-H3255. In words: Inhibition of colony formation in human NCI-H3255 cells at 1.1 uM by Giemsa staining based assay. The data set is classed as functional, cell-based.

Activity calls are given as the source filed them. No cut-off for these calls is given here. Bounds are passed on as bounds.

T1 sequence (P02769 whole entry): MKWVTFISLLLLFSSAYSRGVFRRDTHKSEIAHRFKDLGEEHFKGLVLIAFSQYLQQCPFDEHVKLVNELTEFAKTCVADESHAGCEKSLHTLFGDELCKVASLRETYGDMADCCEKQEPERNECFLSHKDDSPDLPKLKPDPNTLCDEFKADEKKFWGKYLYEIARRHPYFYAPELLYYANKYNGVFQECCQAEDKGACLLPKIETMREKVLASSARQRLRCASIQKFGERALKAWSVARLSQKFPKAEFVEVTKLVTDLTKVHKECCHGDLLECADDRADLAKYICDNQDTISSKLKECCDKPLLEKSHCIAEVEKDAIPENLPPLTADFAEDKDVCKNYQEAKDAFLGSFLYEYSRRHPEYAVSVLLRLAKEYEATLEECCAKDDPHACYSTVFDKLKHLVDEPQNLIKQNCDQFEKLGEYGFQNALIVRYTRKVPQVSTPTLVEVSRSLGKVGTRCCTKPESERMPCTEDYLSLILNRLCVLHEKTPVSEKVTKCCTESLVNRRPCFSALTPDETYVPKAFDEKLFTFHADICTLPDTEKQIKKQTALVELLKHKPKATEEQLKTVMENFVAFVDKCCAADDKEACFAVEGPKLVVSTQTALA
Chain of Dual specificity mitogen-activated protein kinase kinase 2 (Homo sapiens) (P36507 whole entry): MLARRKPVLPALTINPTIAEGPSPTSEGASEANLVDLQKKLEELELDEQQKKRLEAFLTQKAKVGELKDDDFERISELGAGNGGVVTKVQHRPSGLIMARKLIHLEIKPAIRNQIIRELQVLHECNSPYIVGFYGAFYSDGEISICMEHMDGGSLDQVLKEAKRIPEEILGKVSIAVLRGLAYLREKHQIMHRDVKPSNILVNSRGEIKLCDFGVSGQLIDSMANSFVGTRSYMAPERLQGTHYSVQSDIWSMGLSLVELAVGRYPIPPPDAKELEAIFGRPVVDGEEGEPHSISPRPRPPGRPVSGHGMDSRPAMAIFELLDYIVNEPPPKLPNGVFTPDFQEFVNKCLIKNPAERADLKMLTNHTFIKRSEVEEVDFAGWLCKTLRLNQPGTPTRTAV
Chain of Aldehyde dehydrogenase, mitochondrial (Homo sapiens) (P05091 whole entry): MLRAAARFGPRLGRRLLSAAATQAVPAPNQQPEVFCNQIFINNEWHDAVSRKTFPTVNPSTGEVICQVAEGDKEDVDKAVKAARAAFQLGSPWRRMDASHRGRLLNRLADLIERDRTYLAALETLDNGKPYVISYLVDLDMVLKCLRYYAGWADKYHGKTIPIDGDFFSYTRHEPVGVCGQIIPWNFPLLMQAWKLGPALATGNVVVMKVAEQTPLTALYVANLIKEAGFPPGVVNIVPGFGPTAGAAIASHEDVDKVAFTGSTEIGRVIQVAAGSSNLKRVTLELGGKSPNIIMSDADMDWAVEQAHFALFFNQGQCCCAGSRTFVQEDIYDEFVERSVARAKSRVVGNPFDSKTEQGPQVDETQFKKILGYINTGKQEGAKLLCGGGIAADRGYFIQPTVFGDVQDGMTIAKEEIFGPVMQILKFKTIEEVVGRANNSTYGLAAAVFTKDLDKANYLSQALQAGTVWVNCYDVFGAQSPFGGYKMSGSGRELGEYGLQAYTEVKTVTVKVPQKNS
Chain of Catalase (Homo sapiens) (P04040 whole entry): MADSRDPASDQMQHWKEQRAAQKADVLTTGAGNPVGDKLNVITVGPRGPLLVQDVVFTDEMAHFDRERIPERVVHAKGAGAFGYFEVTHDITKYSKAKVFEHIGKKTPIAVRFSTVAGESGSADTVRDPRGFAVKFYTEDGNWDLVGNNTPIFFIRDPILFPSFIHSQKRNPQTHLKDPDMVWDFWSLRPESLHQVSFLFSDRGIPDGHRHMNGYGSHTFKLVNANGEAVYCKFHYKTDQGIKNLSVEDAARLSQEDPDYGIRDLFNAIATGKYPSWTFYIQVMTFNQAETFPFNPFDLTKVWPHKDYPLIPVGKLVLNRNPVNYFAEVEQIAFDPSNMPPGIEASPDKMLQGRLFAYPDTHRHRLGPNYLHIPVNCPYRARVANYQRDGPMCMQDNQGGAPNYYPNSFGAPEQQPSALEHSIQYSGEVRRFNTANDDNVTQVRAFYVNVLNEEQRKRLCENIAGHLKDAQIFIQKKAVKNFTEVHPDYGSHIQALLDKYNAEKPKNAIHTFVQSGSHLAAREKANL
Chain of Aldehyde dehydrogenase 1A1 (Homo sapiens) (P00352 whole entry): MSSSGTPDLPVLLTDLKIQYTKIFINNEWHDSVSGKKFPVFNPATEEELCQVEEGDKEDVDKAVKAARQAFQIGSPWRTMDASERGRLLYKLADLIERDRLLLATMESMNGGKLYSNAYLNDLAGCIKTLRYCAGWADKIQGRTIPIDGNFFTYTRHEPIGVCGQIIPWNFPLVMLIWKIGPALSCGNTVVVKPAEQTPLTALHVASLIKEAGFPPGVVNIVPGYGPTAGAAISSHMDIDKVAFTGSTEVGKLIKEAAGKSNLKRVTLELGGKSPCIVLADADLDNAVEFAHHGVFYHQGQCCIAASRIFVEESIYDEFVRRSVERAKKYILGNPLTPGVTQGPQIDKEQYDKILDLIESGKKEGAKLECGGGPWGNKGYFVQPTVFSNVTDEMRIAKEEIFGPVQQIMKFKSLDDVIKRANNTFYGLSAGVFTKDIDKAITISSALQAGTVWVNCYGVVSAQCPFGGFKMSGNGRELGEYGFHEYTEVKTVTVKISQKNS
Chain of Ubiquitin-like modifier-activating enzyme 1 (Homo sapiens) (P22314 whole entry): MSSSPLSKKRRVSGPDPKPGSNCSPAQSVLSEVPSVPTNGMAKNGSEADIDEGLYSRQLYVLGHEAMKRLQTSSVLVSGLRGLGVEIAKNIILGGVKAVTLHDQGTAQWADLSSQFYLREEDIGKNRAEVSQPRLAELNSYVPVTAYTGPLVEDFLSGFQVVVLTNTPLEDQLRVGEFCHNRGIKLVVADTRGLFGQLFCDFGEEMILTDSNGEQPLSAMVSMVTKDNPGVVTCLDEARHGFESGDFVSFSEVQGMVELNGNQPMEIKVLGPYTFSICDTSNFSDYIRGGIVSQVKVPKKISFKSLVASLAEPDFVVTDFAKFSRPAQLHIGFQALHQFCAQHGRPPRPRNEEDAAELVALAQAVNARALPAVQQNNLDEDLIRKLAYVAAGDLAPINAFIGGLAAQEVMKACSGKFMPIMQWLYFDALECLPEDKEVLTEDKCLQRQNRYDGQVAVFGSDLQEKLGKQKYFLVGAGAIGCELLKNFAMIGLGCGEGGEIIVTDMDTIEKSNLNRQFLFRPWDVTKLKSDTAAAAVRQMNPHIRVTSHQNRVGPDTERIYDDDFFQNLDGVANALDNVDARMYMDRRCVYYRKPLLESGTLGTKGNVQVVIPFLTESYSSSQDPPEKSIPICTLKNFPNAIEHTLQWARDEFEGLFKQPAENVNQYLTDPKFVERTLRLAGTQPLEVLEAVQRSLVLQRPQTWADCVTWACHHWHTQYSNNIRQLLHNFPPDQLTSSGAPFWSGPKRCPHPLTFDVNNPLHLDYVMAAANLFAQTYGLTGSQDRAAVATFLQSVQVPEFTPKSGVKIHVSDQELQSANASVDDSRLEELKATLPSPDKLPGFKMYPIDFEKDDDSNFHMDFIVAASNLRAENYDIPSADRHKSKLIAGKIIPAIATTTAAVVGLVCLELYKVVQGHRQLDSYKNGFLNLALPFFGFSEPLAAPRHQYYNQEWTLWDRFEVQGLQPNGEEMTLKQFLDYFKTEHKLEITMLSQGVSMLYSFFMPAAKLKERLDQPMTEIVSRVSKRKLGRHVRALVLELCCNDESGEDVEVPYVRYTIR
Chain of ATP-dependent translocase ABCB1 (P08183 whole entry): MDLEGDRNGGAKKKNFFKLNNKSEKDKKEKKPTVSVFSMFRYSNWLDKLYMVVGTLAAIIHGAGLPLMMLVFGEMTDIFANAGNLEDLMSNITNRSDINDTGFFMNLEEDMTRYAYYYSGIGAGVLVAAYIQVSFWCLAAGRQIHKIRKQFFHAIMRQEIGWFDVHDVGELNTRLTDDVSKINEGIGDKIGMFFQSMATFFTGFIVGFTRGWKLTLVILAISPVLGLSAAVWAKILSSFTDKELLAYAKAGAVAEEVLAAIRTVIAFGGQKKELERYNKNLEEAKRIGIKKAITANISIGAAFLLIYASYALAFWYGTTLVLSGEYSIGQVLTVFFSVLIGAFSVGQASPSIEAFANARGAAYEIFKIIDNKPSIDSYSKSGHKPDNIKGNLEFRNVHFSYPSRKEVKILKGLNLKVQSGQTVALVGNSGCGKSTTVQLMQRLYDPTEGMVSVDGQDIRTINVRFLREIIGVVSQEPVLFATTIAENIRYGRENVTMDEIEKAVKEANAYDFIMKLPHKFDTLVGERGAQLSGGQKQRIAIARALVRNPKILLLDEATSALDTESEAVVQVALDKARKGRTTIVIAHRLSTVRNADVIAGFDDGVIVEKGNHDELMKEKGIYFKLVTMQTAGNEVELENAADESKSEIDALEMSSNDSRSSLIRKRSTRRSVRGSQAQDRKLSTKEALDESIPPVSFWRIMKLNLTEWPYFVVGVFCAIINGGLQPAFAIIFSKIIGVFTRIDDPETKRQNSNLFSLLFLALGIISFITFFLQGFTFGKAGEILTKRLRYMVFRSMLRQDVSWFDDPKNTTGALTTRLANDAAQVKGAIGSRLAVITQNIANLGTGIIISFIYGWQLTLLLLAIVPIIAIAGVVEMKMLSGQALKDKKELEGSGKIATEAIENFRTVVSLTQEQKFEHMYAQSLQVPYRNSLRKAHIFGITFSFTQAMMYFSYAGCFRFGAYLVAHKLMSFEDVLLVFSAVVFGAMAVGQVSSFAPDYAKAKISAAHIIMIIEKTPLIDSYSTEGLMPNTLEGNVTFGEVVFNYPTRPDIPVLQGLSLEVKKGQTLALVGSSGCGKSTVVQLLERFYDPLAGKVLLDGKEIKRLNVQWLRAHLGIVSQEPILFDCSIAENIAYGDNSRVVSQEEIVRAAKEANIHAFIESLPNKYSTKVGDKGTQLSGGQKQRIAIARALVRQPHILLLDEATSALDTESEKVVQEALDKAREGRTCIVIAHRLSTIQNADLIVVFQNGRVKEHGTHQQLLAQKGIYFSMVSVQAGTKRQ
Chain of Glutathione S-transferase 3, mitochondrial (Homo sapiens) (O14880 whole entry): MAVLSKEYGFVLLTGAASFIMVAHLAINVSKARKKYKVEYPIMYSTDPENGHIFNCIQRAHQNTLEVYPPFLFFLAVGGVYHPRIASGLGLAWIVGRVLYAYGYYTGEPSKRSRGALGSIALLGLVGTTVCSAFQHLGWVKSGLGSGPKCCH

Consider `C#Cc1ccc(OCc2ccc(S(=O)(=O)N(C)C#C)cc2)cc1`, for which, in data set [1], the outcome was Active.
As to `C#Cc1ccc(S(=O)(=O)N(C)C#C)cc1`, the outcome in data set [2], in data set [3], in [4], in [8], in [10] and in data set [11] was Active. For the same molecule, the result in data set [12], in [13], in [14] and in [15] was Active. Moreover, the result in data set [5], in data set [1] and in data set [6] was Active. The Stability entry in data set [7] was “Stable”. In data set [9], the inhibition result is “Active”.
In the case of `C#Cc1cccc(Oc2ncnc3ccc(OCc4ccc(S(=O)(=O)NC)cc4)cc23)c1`, the concentration for half-maximal inhibition (IC50) in data set [16] is more than 50 µM; in [17], 7.8 µM.
For the molecule `C#Cc1cccc(Oc2ncnc3ccc(OCc4ccc(S(=O)(=O)N(C)C#C)cc4)cc23)c1`, the result in [18], in [19], in data set [24], in [25], in [30] and in [31] was Active. For the same molecule, the IC50 in data set [20] was found to be 5.67 µM; in [21] it was 1710 nM; in data set [22], 6.48 µM; in data set [16], 7.61 µM; in [17], 1.89 µM. Moreover, the inhibition result in data set [23], in [26], in data set [29] and in data set [32] was “Active” in each case. Further, the outcome in data set [1] and in data set [28] was Active. Moreover, the inhibition at 10 µM in data set [27] worked out at 100%.

The record behind these values is ChEMBL document CHEMBL5120948, “Ynamide Electrophile for the Profiling of Ligandable Carboxyl Residues in Live Cells and the Development of New Covalent Inhibitors” (J Med Chem, 2022).
